Reference: PubChem BioAssay (NCI)
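96-well plates; 48 h exposure; 5 concentrations. Endpoints by linear interpolation between flanking doses. Not reached: highest tested concentration assigned. TGI marks complete inhibition of growth.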

Legend:
Test in all cases: NCI tumour cell line growth inhibition, 48 h
A498 renal = tested on: A498 renal
A549 NSCLC = tested on: A549 NSCLC
CAKI-1 renal = tested on: CAKI-1 renal
CCRF-CEM leukemia = tested on: CCRF-CEM leukemia
COLO 205 colon = tested on: COLO 205 colon
DLD-1 colon = tested on: DLD-1 colon
DMS 114 small cell lung = tested on: DMS 114 small cell lung
DMS 273 small cell lung = tested on: DMS 273 small cell lung
EKVX NSCLC = tested on: EKVX NSCLC
HCC-2998 colon = tested on: HCC-2998 colon
HCT-116 colon = tested on: HCT-116 colon
HCT-15 colon = tested on: HCT-15 colon
HL-60(TB) leukemia = tested on: HL-60(TB) leukemia
HOP-18 NSCLC = tested on: HOP-18 NSCLC
HOP-62 NSCLC = tested on: HOP-62 NSCLC
HOP-92 NSCLC = tested on: HOP-92 NSCLC
HT29 colon = tested on: HT29 colon
IGROV1 ovarian = tested on: IGROV1 ovarian
K-562 leukemia = tested on: K-562 leukemia
KM12 colon = tested on: KM12 colon
KM20L2 colon = tested on: KM20L2 colon
LOX IMVI melanoma = tested on: LOX IMVI melanoma
M19-MEL melanoma = tested on: M19-MEL melanoma
MCF7 breast = tested on: MCF7 breast
MOLT-4 leukemia = tested on: MOLT-4 leukemia
NCI-H226 lung = tested on: NCI-H226 lung
NCI-H23 lung = tested on: NCI-H23 lung
NCI-H460 lung = tested on: NCI-H460 lung
NCI-H522 lung = tested on: NCI-H522 lung
NCI/ADR-RES ovarian = tested on: NCI/ADR-RES ovarian
OVCAR-3 ovarian = tested on: OVCAR-3 ovarian
OVCAR-4 ovarian = tested on: OVCAR-4 ovarian
OVCAR-5 ovarian = tested on: OVCAR-5 ovarian
OVCAR-8 ovarian = tested on: OVCAR-8 ovarian
P388 leukemia = tested on: P388 leukemia
P388/ADR leukemia = tested on: P388/ADR leukemia
RPMI-8226 leukemia = tested on: RPMI-8226 leukemia
RXF 393 renal = tested on: RXF 393 renal
SF-268 CNS = tested on: SF-268 CNS
SF-295 CNS = tested on: SF-295 CNS
SF-539 CNS = tested on: SF-539 CNS
SK-MEL-2 melanoma = tested on: SK-MEL-2 melanoma
SK-MEL-28 melanoma = tested on: SK-MEL-28 melanoma
SK-MEL-5 melanoma = tested on: SK-MEL-5 melanoma
SK-OV-3 ovarian = tested on: SK-OV-3 ovarian
SN12C renal = tested on: SN12C renal
SN12K1 renal = tested on: SN12K1 renal
SNB-19 CNS = tested on: SNB-19 CNS
SNB-75 CNS = tested on: SNB-75 CNS
SNB-78 CNS = tested on: SNB-78 CNS
SW-620 colon = tested on: SW-620 colon
U251 CNS = tested on: U251 CNS
UACC-257 melanoma = tested on: UACC-257 melanoma
UACC-62 melanoma = tested on: UACC-62 melanoma
UO-31 renal = tested on: UO-31 renal
XF 498 CNS = tested on: XF 498 CNS

Q: What does the source list for `COc1ccc(-c2nc3ccc([N+](=O)[O-])cc3c(=O)[nH]2)cc1`?
A: TGI (A498 renal): > 100 µM; TGI (A549 NSCLC): > 100 µM; TGI (CAKI-1 renal): > 86.7 µM; TGI (CCRF-CEM leukemia): > 100 µM; TGI (COLO 205 colon): > 100 µM; TGI (DLD-1 colon): > 100 µM; TGI (DMS 114 small cell lung): > 100 µM; TGI (DMS 273 small cell lung): > 100 µM; TGI (EKVX NSCLC): > 100 µM; TGI (HCC-2998 colon): > 100 µM; TGI (HCT-116 colon): > 79.4 µM; TGI (HCT-15 colon): > 100 µM; TGI (HL-60(TB) leukemia): > 100 µM; TGI (HOP-18 NSCLC): > 100 µM; TGI (HOP-62 NSCLC): > 67.7 µM; TGI (HOP-92 NSCLC): 45.8 µM; TGI (HT29 colon): > 100 µM; TGI (IGROV1 ovarian): 71.5 µM; TGI (K-562 leukemia): > 100 µM; TGI (KM12 colon): > 100 µM; TGI (KM20L2 colon): > 100 µM; TGI (LOX IMVI melanoma): > 100 µM; TGI (M19-MEL melanoma): > 100 µM; TGI (MCF7 breast): > 100 µM; TGI (MOLT-4 leukemia): > 100 µM; TGI (NCI-H226 lung): 59.1 µM; TGI (NCI-H23 lung): > 86.8 µM; TGI (NCI-H460 lung): > 100 µM; TGI (NCI-H522 lung): 90.5 µM; TGI (NCI/ADR-RES ovarian): > 100 µM; TGI (OVCAR-3 ovarian): 64.3 µM; TGI (OVCAR-4 ovarian): 33.4 µM; TGI (OVCAR-5 ovarian): > 100 µM; TGI (OVCAR-8 ovarian): > 72.2 µM; TGI (P388 leukemia): > 100 µM; TGI (P388/ADR leukemia): > 100 µM; TGI (RPMI-8226 leukemia): > 100 µM; TGI (RXF 393 renal): > 75.6 µM; TGI (SF-268 CNS): 67.3 µM; TGI (SF-295 CNS): > 63.3 µM; TGI (SF-539 CNS): 29.7 µM; TGI (SK-MEL-2 melanoma): > 100 µM; TGI (SK-MEL-28 melanoma): > 100 µM; TGI (SK-MEL-5 melanoma): > 100 µM; TGI (SK-OV-3 ovarian): 29.3 µM; TGI (SN12C renal): > 100 µM; TGI (SN12K1 renal): > 86.5 µM; TGI (SNB-19 CNS): 55.3 µM; TGI (SNB-75 CNS): 31 µM; TGI (SNB-78 CNS): 71.8 µM; TGI (SW-620 colon): > 100 µM; TGI (U251 CNS): > 64.3 µM; TGI (UACC-257 melanoma): > 100 µM; TGI (UACC-62 melanoma): > 100 µM; TGI (UO-31 renal): > 100 µM; TGI (XF 498 CNS): 46.3 µM
